Assay results: patent US20070032538A1, “Use of compounds” (priority 1999, published 2007)

System: subjects with IGM
Assay: Multi-center, double-blind, parallel group, randomized study of nateglinide vs placebo before each main meal for 8 weeks in subjects with IGM
Format: in vivo, human
Details: nateglinide 30 mg, 60 mg or 120 mg before each main meal, 8 weeks of treatment
Method: Favorable effects can be verified that confirm that hypoglycemic agents such as insulin enhancers can restore early phase insulin secretion and reduce post-prandial glucose levels in subjects with IGM. A multi-center, double-blind, parallel group, randomized study can be conducted in subjects with IGM in order to evaluate the incidence of confirmed hypoglycemia and the effects on prandial glucose associated with the administration of nateglinide 30 mg, 60 mg or 120 mg or placebo before each main meal during 8 weeks of treatment. Subjects are selected on the basis of a 2-hour plasma glucose value after a 75 g oral glucose tolerance test (OGTT) and patients essentially meeting the following additional inclusion criteria are included in the study: • two-hour glycemia post-OGTT between 7.8 to 11.1 mmol/L (one OGTT to be performed during the year before entering the study, the second to be performed within two weeks prior entering the study); • FPG <7 mmol/L; • patients are to have a body mass index (BMI) between 20-32 kg/m2; • patients are to maintain prior diet during the full course of study; • males, non-fertile females, females of child-bearing potential using a medically approved birth control method are included; • the use of other antidiabetics during the trial is not permitted. Corresponding dosages of e.g. nateglinide are administered with a large glass of water 2 (BID), 3 (TID) or 4 (QID) times daily depending on the number of main meals (breakfast, lunch, snack, dinner). The first dose is to be given with the first main meal (standardized meal i.e. 55% carbohydrates, 25% fat and 20% protein). Visits are scheduled to be performed at weeks 0, 2, 4 and 8 and the patients are to be fasted for at least 7 hours. All blood samples for laboratory evaluations are drawn between 07.00 and 10.00 a.m. HbA1c is to be measured at baseline. and after 8 weeks of treatment (fasting glucose and fructosamine). Samples of blood are to be drawn at 10, 20, […], 60, 120, and 180 minutes after drug administration (time 0) and the glucose and insulin levels to be measured. At weeks 0 and 8 visits, patients complete a standard meal challenge containing approximately 500 kcal and measurements of insulin and glucose will be performed. […] With longer treatment and follow-up, conditions and diseases associated with IGM could be prevented or reduced.

## CC(C)[C@H]1CC[C@H](C(=O)N[C@H](Cc2ccccc2)C(=O)O)CC1 [nateglinide, N-(trans-4-isopropylcyclohexylcarbonyl)-D-phenylalanine]
  2 hour prandial glucose levels: significantly reduced
  HBA1c: significantly reduced
  early phase insulin secretion: restored
  fructosamine levels: significantly reduced
  progression to type 2 diabetes mellitus: could prevent or delay
